The results in this text go back to patent US20130184273A1, “BICYCLIC PYRIMIDINES” (Bayer Intellectual Property GmbH, priority 2010, published 2013).

Molecules are shown by their SMILES.

Assay [1] concerns the target T1, His-tagged human recombinant kinase full-length Akt1 (Homo sapiens, UniProt P31749).
T1 construct: His-tagged human recombinant kinase full-length Akt1; His; purchased Invitrogen PV 3599; host or cells: insect cells
In words: Akt1 kinase assay (TR-FRET). The format is biochemical. Conditions: 10 μM ATP, 60 min at 22° C., read-out: Akt1, median IC50. An excerpt: Akt1 inhibitory activity of compounds of the present invention was quantified employing the Akt1 TR-FRET assay as described in the following paragraphs.
His-tagged human recombinant kinase full-length Akt1 expressed in insect cells was purchased form Invitrogen (part number PV 3599). As substrate for the kinase reaction the biotinylated peptide biotin-Ahx-KKLNRTLSFAEPG (C-terminus in amide form) was used which can be purchased e.g. from the company Biosynthan GmbH (Berlin-Buch, Germany).
(§1) For the assay 50 nl of a 100 fold concentrated solution of the test compound in DMSO was pipetted into a black low volume 384well microtiter plate (Greiner Bio-One, Frickenhausen, Germany), 2 μl of a solution of Akt1 in assay buffer [50 mM TRIS/HCl pH 7.5, 5 mM MgCl2, 1 mM dithiothreitol, 0.02% (v/v) Triton X-100 (Sigma)] were added and the mixture was incubated for 15 min at 22° C. to allow pre-binding of the test compounds to the enzyme before the start of the kinase reaction. Then the kinase reaction was started by the addition of 3 μl of a solution of adenosine-tri-phosphate (ATP, 16.7 μM=>final conc. in the 5 μl assay volume is 10 μM) and substrate (1.67 μM=>final conc. in the 5 μl assay volume is 1 μM) in assay buffer and the resulting mixture was incubated for a reaction time of 60 min at 22° C. The concentration of Akt1 in the assay was adjusted depending of the activity of the enzyme lot and was chosen appropriate to have the assay in the linear range, typical enzyme concentrations were in the range of about 0.05 ng/μl (final conc. in the 5 μl assay volume).
The reaction was stopped by the addition of 5 μl of a solution of HTRF detection reagents (200 nM streptavidine-XL665 [Cisbio] and 1.5 nM anti-phosho-Serine antibody [Millipore, cat. #35-001] and 0.75 nM LANCE Eu-W 1024 labeled anti-mouse IgG antibody [Perkin Elmer]) in an aqueous EDTA-solution (100 mM EDTA, 0.1% (w/v) bovine serum albumin in 50 mM HEPES/NaOH pH 7.5). The resulting mixture was incubated 1 h at 22° C. to allow the binding of the biotinylated phosphorylated peptide to the streptavidine-XL665 and the antibodies. Subsequently the amount of phosphorylated substrate was evaluated by measurement of the resonance energy transfer from the anti-mouse-IgG-Eu-Chelate to the streptavidine-XL665. Therefore, the fluorescence emissions at 620 nm and 665 nm after excitation at 350 nm was measured in a HTRF reader, e.g. a Rubystar (BMG Labtechnologies, Offenburg, Germany) or a Viewlux (Perkin-Elmer). The ratio of the emissions at 665 nm and at […] was taken as the measure for the amount of phosphorylated substrate. The data were normalised (enzyme reaction without inhibitor=0% inhibition, all other assay components but no enzyme=100% inhibition).
In general terms: TR-FRET usually uses a lanthanide donor and a delayed reading to cut background.

Assay [2] has as its target T2, His-tagged human recombinant kinase full-length Akt2 (Homo sapiens, UniProt P31751).
T2 construct: His-tagged human recombinant kinase full-length Akt2; His; purchased Invitrogen PV 3975; host or cells: insect cells
Nature of the assay: Akt2 kinase assay (TR-FRET). Type of assay: biochemical. The settings on record: 10 μM ATP, 60 min at 22° C., read-out: Akt2, median IC50.
From the text: Akt2 inhibitory activity of compounds of the present invention was quantified employing the Akt2 TR-FRET assay as described in the following paragraphs.
His-tagged human recombinant kinase full-length Akt2 expressed in insect cells and activated by PDK1 was purchased form Invitrogen (part number PV 3975). As substrate for the kinase reaction the biotinylated peptide biotin-Ahx-KKLNRTLSFAEPG (C-terminus in amide form) was used which can be purchased e.g. from the company Biosynthan GmbH (Berlin-Buch, Germany).
as §1, with “Akt2” for “Akt1”, “0.2” for “0.05”
The reaction was stopped by the addition of 5 μl of a solution of HTRF detection reagents (200 nM streptavidine-XL665 [Cisbio] and 1.5 nM anti-phosho-Serine antibody [Millipore, cat. #35-001] and 0.75 nM LANCE Eu-W 1024 labeled anti-mouse IgG antibody [Perkin Elmer]) in an aqueous EDTA-solution (100 mM EDTA, 0.1% (w/v) bovine serum albumin in 50 mM HEPES/NaOH pH 7.5).
The resulting mixture was incubated 1 h at 22° C. to allow the binding of the biotinylated phosphorylated peptide to the streptavidine-XL665 and the antibodies.
Subsequently the amount of phosphorylated substrate was evaluated by measurement of the resonance energy transfer from the anti-mouse-IgG-Eu-Chelate to the streptavidine-XL665. Therefore, the fluorescence emissions at 620 nm and 665 nm after excitation at 350 nm was measured in a TR-FRET reader, e.g. a Rubystar (BMG Labtechnologies, Offenburg, Germany) or a Viewlux (Perkin-Elmer). The ratio of the emissions at 665 nm and at […] was taken as the measure for the amount of phosphorylated substrate. The data were normalised (enzyme reaction without inhibitor=0% inhibition, all other assay components but no enzyme=100% inhibition).

T2 sequence (P31751 whole entry): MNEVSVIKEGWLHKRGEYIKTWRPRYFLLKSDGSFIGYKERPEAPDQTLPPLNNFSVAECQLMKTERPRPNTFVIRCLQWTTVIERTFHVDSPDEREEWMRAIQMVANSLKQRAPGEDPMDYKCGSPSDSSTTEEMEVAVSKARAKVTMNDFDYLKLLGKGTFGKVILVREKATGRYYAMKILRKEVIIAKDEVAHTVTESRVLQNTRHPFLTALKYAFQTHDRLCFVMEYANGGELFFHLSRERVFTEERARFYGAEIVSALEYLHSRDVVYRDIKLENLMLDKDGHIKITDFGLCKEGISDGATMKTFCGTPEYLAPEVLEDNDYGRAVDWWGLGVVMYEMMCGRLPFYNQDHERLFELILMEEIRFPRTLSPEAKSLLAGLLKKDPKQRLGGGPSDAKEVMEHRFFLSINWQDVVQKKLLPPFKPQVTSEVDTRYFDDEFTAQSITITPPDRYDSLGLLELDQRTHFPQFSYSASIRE
T1 sequence (P31749 whole entry): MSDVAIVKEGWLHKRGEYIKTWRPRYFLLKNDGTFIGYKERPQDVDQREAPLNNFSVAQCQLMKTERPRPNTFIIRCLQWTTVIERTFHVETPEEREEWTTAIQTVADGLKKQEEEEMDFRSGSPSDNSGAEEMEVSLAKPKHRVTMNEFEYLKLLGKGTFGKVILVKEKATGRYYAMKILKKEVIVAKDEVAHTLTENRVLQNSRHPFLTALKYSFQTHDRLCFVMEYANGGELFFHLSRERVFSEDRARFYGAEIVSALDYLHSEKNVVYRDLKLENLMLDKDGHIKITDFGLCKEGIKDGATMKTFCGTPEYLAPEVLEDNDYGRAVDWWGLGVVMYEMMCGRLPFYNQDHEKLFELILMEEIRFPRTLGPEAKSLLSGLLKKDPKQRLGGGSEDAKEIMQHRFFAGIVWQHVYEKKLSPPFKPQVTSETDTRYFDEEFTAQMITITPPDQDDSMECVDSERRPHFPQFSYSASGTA

`Cc1nc2nc(-c3ccc(C4(N)CCCC4)cc3)c(-c3ccccc3)cn2n1` [Example 1-1, 1-[4-(2-methyl-6-phenyl-[1,2,4]triazolo[1,5-a]pyrimidin-5-yl)-phenyl]-cyclopentylamine]: the IC50 turned out to be 2570 nM in assay [1] and 3260 nM in assay [2].

With `Cc1nc2nc(-c3ccc(C4(N)CC4)cc3)c(-c3ccccc3)cn2n1` [Example 1-2, 1-[4-(2-methyl-6-phenyl-[1,2,4]triazolo[1,5-a]pyrimidin-5-yl)-phenyl]-cyclopropylamine], the IC50 in assay [1] stood at 3010 nM; in assay [2], 2220 nM.

On to `Cc1nc2nc(-c3ccc(C4(N)CCC4)cc3)c(-c3ccccc3)c(C)n2n1` [Example 1-3, 1-[4-(2,7-dimethyl-6-phenyl-[1,2,4]triazolo[1,5-a]pyrimidin-5-yl)-phenyl]-cyclobutylamine], for which the 50% inhibitory concentration (IC50) in assay [1] was 526 nM; in assay [2], 1020 nM.

On to `NC1(c2ccc(-c3nc4nccn4cc3-c3ccccc3)cc2)CCC1` [Example 2-0, 1-[4-(6-Phenyl-imidazo[1,2-a]pyrimidin-7-yl)-phenyl]-cyclobutylamine], for which the IC50 in assay [1] is 2220 nM; in assay [2], 1640 nM.

Turning to `NC1(c2ccc(-c3nc4nccn4c(NC4CC4)c3-c3ccccc3)cc2)CCC1` [Example 2-2, {7-[4-(1-Amino-cyclobutyl)-phenyl]-6-phenyl-imidazo[1,2-a]pyrimidin-5-yl)-cyclopropylamine], the concentration for half-maximal inhibition (IC50) in assay [1] is 2050 nM; in assay [2] it was 1580 nM.

Consider `NC1(c2ccc(-c3nc4nccn4c(N4CCOCC4)c3-c3ccccc3)cc2)CCC1` [Example 2-3, 1-[4-(5-Morpholino-4-yl-6-phenyl-imidazo[1,2-a]pyrimidin-7-yl)phenyl]-cyclobutylamine], for which the figures for the IC50 in assay [1] and in assay [2] were 13100 nM and 7470 nM, respectively.

As for `COC[C@H](C)Nc1c(-c2ccccc2)c(-c2ccc(C3(N)CCC3)cc2)nc2nccn12` [Example 2-4, {7-[4-(1-Amino-cyclobutyl)-phenyl]-6-phenyl-imidazo[1,2-a]pyrimidin-5-yl}-((S)-2-methoxy-1-methyl-ethyl)-amine], the figures for the concentration for half-maximal inhibition (IC50) in assay [1] and in assay [2] were 10600 nM and 1270 nM, respectively.

Take `COC[C@H](C)Nc1c(-c2ccccc2)c(-c2ccc(C3(N)CCC3)cc2)nc2nc(C)cn12` [Example 2-6, {7-[4-(1-Amino-cyclobutyl)-phenyl]-2-methyl-6-phenyl-imidazo[1,2-a]pyrimidin-5-yl}-((S)-2-methoxy-1-methyl-ethyl)-amine]: the IC50 is 13000 nM in assay [1] and 2860 nM in assay [2].

Consider `NC1(c2ccc(-c3nc4nc(-c5ccccn5)nn4c(NC4CC4)c3-c3ccccc3)cc2)CCC1` [Example 3-1, {5-[4-(1-Aminocyclobutyl)-phenyl]-6-phenyl-2-pyridine-2-yl-[1,2,4]triazolo[1,5-a]pyrimidin-7-yl}-cyclopropylamine], for which the IC50 worked out at 2380 nM in assay [1] and 2320 nM in assay [2].

As to `NC1(c2ccc(-c3nc4nc(-c5ccccn5)nn4c(N4CCOCC4)c3-c3ccccc3)cc2)CCC1` [Example 3-2, 1-[4-(7-Morpholine-4-yl-6-phenyl-2-pyridine-2-yl-[1,2,4]triazolo[1,5-a]pyrimidin-5-yl)-phenyl]-cyclobutylamine], the IC50 in assay [1] was at least 20000 nM; in assay [2], 6640 nM.

Turning to `CCOC(=O)C1(Nc2c(-c3ccccc3)c(-c3ccc(C4(N)CCC4)cc3)nc3nc(C)nn23)CCC1` [Example 3-3, 1-{5-[4-(1-Aminocyclobutyl)-phenyl]-2-methyl-6-phenyl-[1,2,4]triazolo[1,5-a]pyrimidin-7-ylamino}-cyclobutanecarboxylic acid ethyl ester], the IC50 in assay [1] was at least 20000 nM; in assay [2], 1120 nM.

For `COCCCNc1c(-c2ccccc2)c(-c2ccc(C3(N)CCC3)cc2)nc2nc(C)nn12` [Example 3-4, {5-[4-(1-Amino-cyclobutyl)-phenyl]-2-methyl-6-phenyl-[1,2,4]triazolo[1,5-a]pyrimidin-7-yl}-(3-methoxy-propyl)-amine], the IC50 in assay [1] is 18200 nM; in assay [2], 9350 nM.

Consider `Cc1nc2nc(-c3ccc(C4(N)CCC4)cc3)c(-c3ccccc3)c(NCCc3ccc(F)cc3)n2n1` [Example 3-5, {5-[4-(1-Amino-cyclobutyl)-phenyl]-2-methyl-6-phenyl-[1,2,4]triazolo[1,5-a]pyrimidin-7-yl}-[2-(4-fluoro-phenyl)-ethyl]-amine], for which the results for the half-maximal inhibitory concentration (IC50) in assay [1] and in assay [2] were 18800 nM and 3560 nM, respectively.

Regarding `COCCNc1nc2nc(-c3ccc(C4(N)CCC4)cc3)c(-c3ccccc3)cn2n1` [Example 5-0, {5-[4-(1-Amino-cyclobutyl)-phenyl]-6-phenyl-[1,2,4]triazolo[1,5-a]pyrimidin-2-yl}-(2-methoxy-ethyl)-amine], the figures for the 50% inhibitory concentration (IC50) in assay [1] and in assay [2] were 1830 nM and 877 nM, respectively.

As for `CCNc1nc2nc(-c3ccc(C4(N)CCC4)cc3)c(-c3ccccc3)cn2n1` [Example 5-1, {5-[4-(1-amino-cyclobutyl)-phenyl]-6-phenyl-[1,2,4]triazolo[1,5-a]pyrimidin-2-yl}-ethyl-amine], the IC50 was 958 nM in assay [1] and 502 nM in assay [2].

Take `NC1(c2ccc(-c3nc4nc(NCc5ccncc5)nn4cc3-c3ccccc3)cc2)CCC1` [Example 5-6, {5-[4-(1-amino-cyclobutyl)-phenyl]-6-phenyl-[1,2,4]triazolo[1,5-a]pyrimidin-2-yl}-pyridin-4-ylmethyl-amine]: the IC50 in assay [1] came to 5650 nM; in assay [2], 2550 nM.

Consider `Cc1nc2nc(-c3ccc(C4(N)CCC4)cc3)c(-c3ccccc3)c(NC(C)C)n2n1` [Example 5-7, {5-[4-(1-amino-cyclobutyl)-phenyl]-2-methyl-6-phenyl-[1,2,4]triazolo[1,5-a]pyrimidin-7-yl}-isopropyl-amine], for which the IC50 came to 672 nM in assay [1] and 549 nM in assay [2].

One may read the IC50 as the concentration that inhibits the measured activity by half.
